Assay [1] deals with T1, MAG (Mus musculus, UniProt P20917).
T1 sequence (P20917 20-627): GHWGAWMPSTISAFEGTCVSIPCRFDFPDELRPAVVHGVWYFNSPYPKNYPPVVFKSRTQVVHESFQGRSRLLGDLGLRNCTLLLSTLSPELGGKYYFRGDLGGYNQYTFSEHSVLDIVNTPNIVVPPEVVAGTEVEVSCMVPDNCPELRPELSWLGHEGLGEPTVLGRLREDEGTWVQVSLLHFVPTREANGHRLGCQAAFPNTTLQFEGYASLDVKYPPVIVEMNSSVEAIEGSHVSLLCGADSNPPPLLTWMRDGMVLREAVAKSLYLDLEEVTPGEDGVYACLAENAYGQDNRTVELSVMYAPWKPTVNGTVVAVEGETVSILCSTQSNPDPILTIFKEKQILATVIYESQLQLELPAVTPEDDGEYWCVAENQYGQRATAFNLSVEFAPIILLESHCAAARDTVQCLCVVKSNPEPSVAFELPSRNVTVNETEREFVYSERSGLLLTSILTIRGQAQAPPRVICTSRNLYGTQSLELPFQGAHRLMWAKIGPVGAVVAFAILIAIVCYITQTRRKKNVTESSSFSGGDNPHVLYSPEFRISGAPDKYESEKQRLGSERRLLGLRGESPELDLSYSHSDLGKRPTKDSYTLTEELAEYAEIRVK
Description: NMR second-site screening with spin-labeled first-site ligand 2 (Jahnke method). Particulars: H-NMR in the presence of spin-labeled analogue 2; indicates binding proximate (radius of 15 to 20 Å) to the Tempo spin label.
Description: Second-site ligands that are affected by the initial lead can be detected in different ways, including NMR based methods that involve, e.g. spin labeling the initial lead. […] Jahnke's method detects the paramagnetic relaxation enhancement on a second ligand caused by a spin-labeled first ligand. The method allows for the detection of “true” second-site ligands, which are ligands that bind to the target (1) simultaneously with and (2) in the proximity of the first ligand (“second-site screening”).
Members of a library composed of 60 divers or sub-libraries thereof, which are drug-like, soluble and synthetically easily available fragments (“second-site ligands”) binding to the target protein were identified based on their shorter relaxation time in H-NMR.

Assay [2] has as its target T2, Fc-MAG(d1-3) (Mus musculus, UniProt P20917).
T2 sequence (P20917 20-325 limits assumed): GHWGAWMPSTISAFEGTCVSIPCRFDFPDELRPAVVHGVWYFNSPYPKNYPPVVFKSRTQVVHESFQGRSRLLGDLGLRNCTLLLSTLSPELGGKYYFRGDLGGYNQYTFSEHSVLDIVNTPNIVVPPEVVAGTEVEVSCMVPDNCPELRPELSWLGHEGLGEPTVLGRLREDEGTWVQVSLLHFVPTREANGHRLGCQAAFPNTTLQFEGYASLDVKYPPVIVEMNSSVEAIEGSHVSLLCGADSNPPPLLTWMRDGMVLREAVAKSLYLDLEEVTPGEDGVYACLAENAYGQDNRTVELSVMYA
Kind of assay: surface plasmon resonance (BIACORE 3000), Fc-MAG(d1-3) immobilized by protein A. Type of assay: binding, murine. As to the method: For the in situ click chemistry experiment (Lewis, 2002; Bourne, 2004; […], 2005), Fc-MAG(d1-3) (Crocker, 1996) (8.77 μM) was incubated with a mixture of the four substituted first-site ligands 14a-d (each 40 μM) and the two substituted second-site ligands 22, 26 (each 800 μM) in phosphate buffer (pH 7.4) at 37° C. for 24 h. The different concentrations of the first- and second-site ligands reflect their affinities in the low micro- and millimolar range. […] To exclude that false positives are formed during incubation, two control experiments were performed. In the first, MAG was replaced by bovine serum albumin. In the second, no protein was added. In both experiments, no triazole formation could be observed. The protein included the Fc portion of human immunoglobulin IgG1 and the three N-terminal domains of murine MAG (for its preparation, see Crocker & Kelm (1996)). […] The KD analyses were performed at 25° C. on a BIACORE 3000 surface plasmon resonance-based optical biosensor (Biacore AB, Uppsala, Sweden). Protein A (Sigma, Basel) was immobilized onto a CM5 sensor chip (Biacore AB, research grade) using standard amine coupling. All data processing and equilibrium binding constant determinations were accomplished with Scrubber© (BioLogic Software, Campbell, Australia, Version 1.1g). […] The equilibrium binding constants KD were calculated using a 1:1 binding model. […]

Regarding `O=[N+]([O-])c1ccc2[nH]ccc2c1` [compound 15, 5-nitro-1H-indole], the paramagnetic relaxation enhancement entry in assay [1] is given as “enhanced relaxation was observed”. The affinity entry in assay [2] (surface plasmon resonance experiment) is given as “low millimolar range”.

`CC(=O)NC1C(O)CC(OCc2cn(CCCc3c[nH]c4ccc([N+](=O)[O-])cc34)nn2)(C(=O)O)OC1C(O)C(O)CNC(=O)c1ccccc1` [compound 27, 1-(5-nitro-1H-indol-3-yl-propyl)-4-{sodium [5-acetamido-9-benzamido-3,5,9-trideoxy-D-glycero-α-D-galacto-2-nonulopyranosynate-2-O-yl}-methyl-1,2,3]-triazole] registered an equilibrium dissociation constant (Kd) in assay [2] (SPR, Fc-MAG(d1-3) immobilized by protein A, 25° C., 1:1 binding model) of 190 nM.

The values above are taken from patent US20090239760A1, “Method for the Identification of New Leads for Drug Candidates” (UNIVERSITY OF BASEL, priority 2006, published 2009).
